PubChem BioAssay (NCI)
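Tested at 5 concentrations; 48 h exposure; 96-well plates; endpoints linearly interpolated, else capped at highest concentration. TGI: total growth inhibition.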

How the values were obtained:
Experiment in all cases: NCI anticancer screen, dose series, 48 h
786-0 renal = tested on: 786-0 renal
A498 renal = tested on: A498 renal
A549 NSCLC = tested on: A549 NSCLC
ACHN renal = tested on: ACHN renal
CCRF-CEM leukemia = tested on: CCRF-CEM leukemia
COLO 205 colon = tested on: COLO 205 colon
DU-145 prostate = tested on: DU-145 prostate
EKVX NSCLC = tested on: EKVX NSCLC
HCC-2998 colon = tested on: HCC-2998 colon
HCT-116 colon = tested on: HCT-116 colon
HCT-15 colon = tested on: HCT-15 colon
HL-60(TB) leukemia = tested on: HL-60(TB) leukemia
HOP-62 NSCLC = tested on: HOP-62 NSCLC
HOP-92 NSCLC = tested on: HOP-92 NSCLC
HS 578T breast = tested on: HS 578T breast
HT29 colon = tested on: HT29 colon
K-562 leukemia = tested on: K-562 leukemia
KM12 colon = tested on: KM12 colon
LOX IMVI melanoma = tested on: LOX IMVI melanoma
M14 melanoma = tested on: M14 melanoma
MALME-3M melanoma = tested on: MALME-3M melanoma
MCF7 breast = tested on: MCF7 breast
MDA-MB-231 breast = tested on: MDA-MB-231 breast
MDA-MB-435 = tested on: MDA-MB-435
MDA-N = tested on: MDA-N
MOLT-4 leukemia = tested on: MOLT-4 leukemia
NCI-H226 lung = tested on: NCI-H226 lung
NCI-H23 lung = tested on: NCI-H23 lung
NCI-H460 lung = tested on: NCI-H460 lung
NCI/ADR-RES ovarian = tested on: NCI/ADR-RES ovarian
OVCAR-3 ovarian = tested on: OVCAR-3 ovarian
OVCAR-4 ovarian = tested on: OVCAR-4 ovarian
OVCAR-5 ovarian = tested on: OVCAR-5 ovarian
OVCAR-8 ovarian = tested on: OVCAR-8 ovarian
PC-3 prostate = tested on: PC-3 prostate
RPMI-8226 leukemia = tested on: RPMI-8226 leukemia
RXF 393 renal = tested on: RXF 393 renal
SF-268 CNS = tested on: SF-268 CNS
SF-295 CNS = tested on: SF-295 CNS
SF-539 CNS = tested on: SF-539 CNS
SK-MEL-2 melanoma = tested on: SK-MEL-2 melanoma
SK-MEL-28 melanoma = tested on: SK-MEL-28 melanoma
SK-MEL-5 melanoma = tested on: SK-MEL-5 melanoma
SK-OV-3 ovarian = tested on: SK-OV-3 ovarian
SN12C renal = tested on: SN12C renal
SNB-19 CNS = tested on: SNB-19 CNS
SR leukemia = tested on: SR leukemia
SW-620 colon = tested on: SW-620 colon
TK-10 renal = tested on: TK-10 renal
U251 CNS = tested on: U251 CNS
UACC-257 melanoma = tested on: UACC-257 melanoma
UACC-62 melanoma = tested on: UACC-62 melanoma
UO-31 renal = tested on: UO-31 renal

SMILES: Cc1nc2c([nH]c1C)c(O)cc1c3c(nc12)C(=O)CCC3
- TGI (786-0 renal): > 100 µM
- TGI (A498 renal): > 100 µM
- TGI (A549 NSCLC): 14.1 µM
- TGI (ACHN renal): > 100 µM
- TGI (CCRF-CEM leukemia): > 100 µM
- TGI (COLO 205 colon): 5.99 µM
- TGI (DU-145 prostate): > 100 µM
- TGI (EKVX NSCLC): > 100 µM
- TGI (HCC-2998 colon): 7.88 µM
- TGI (HCT-116 colon): > 100 µM
- TGI (HCT-15 colon): > 100 µM
- TGI (HL-60(TB) leukemia): > 100 µM
- TGI (HOP-62 NSCLC): > 100 µM
- TGI (HOP-92 NSCLC): > 100 µM
- TGI (HS 578T breast): 83 µM
- TGI (HT29 colon): 11.7 µM
- TGI (K-562 leukemia): > 100 µM
- TGI (KM12 colon): > 100 µM
- TGI (LOX IMVI melanoma): > 100 µM
- TGI (M14 melanoma): > 100 µM
- TGI (MALME-3M melanoma): > 100 µM
- TGI (MCF7 breast): 4.35 µM
- TGI (MDA-MB-231 breast): > 100 µM
- TGI (MDA-MB-435): 2.05 µM
- TGI (MDA-N): 3.1 µM
- TGI (MOLT-4 leukemia): > 100 µM
- TGI (NCI-H226 lung): > 100 µM
- TGI (NCI-H23 lung): > 100 µM
- TGI (NCI-H460 lung): > 100 µM
- TGI (NCI/ADR-RES ovarian): > 100 µM
- TGI (OVCAR-3 ovarian): 7.31 µM
- TGI (OVCAR-4 ovarian): 45.4 µM
- TGI (OVCAR-5 ovarian): > 100 µM
- TGI (OVCAR-8 ovarian): 8.25 µM
- TGI (PC-3 prostate): > 100 µM
- TGI (RPMI-8226 leukemia): 7.05 µM
- TGI (RXF 393 renal): 3.68 µM
- TGI (SF-268 CNS): 96.2 µM
- TGI (SF-295 CNS): 90.8 µM
- TGI (SF-539 CNS): 13.6 µM
- TGI (SK-MEL-2 melanoma): 8.92 µM
- TGI (SK-MEL-28 melanoma): > 100 µM
- TGI (SK-MEL-5 melanoma): > 100 µM
- TGI (SK-OV-3 ovarian): 38.1 µM
- TGI (SN12C renal): > 100 µM
- TGI (SNB-19 CNS): > 100 µM
- TGI (SR leukemia): 8.77 µM
- TGI (SW-620 colon): > 100 µM
- TGI (TK-10 renal): 26.3 µM
- TGI (U251 CNS): 20.9 µM
- TGI (UACC-257 melanoma): > 100 µM
- TGI (UACC-62 melanoma): 52.6 µM
- TGI (UO-31 renal): 84.2 µM
